What was measured:
Plutella xylostella = test: Diamondback moth bioassay on Savoy cabbage leaf discs (Example 9); type: in vivo
Method: Example 9 also describes the effect of the combination according to the invention on caterpillars of diamondback moth Plutella xylostella on Savoy cabbage. The plants were grown in a greenhouse, and five plants each were treated as follows: The spray solution was prepared by mixing commercial formulations and using water to adjust to the concentration mentioned. The application rate was 1000 l/ha. • 1. untreated • 2. compound (I-1) as SL 200 (compound according to formula (I-1), 17% strength), 50 g of active compound/ha • 3. azadirachtin 30 g of active compound/ha, NeemAzal® • 4. azadirachtin 15 g of active compound/ha, NeemAzal® • 5. azadirachtin 5 g of active compound/ha, NeemAzal® • 6. compound (I-1) as SL 200+azadirachtin, 50+30 g of active compound/ha • 7. compound (I-1) as SL 200+azadirachtin, 50+15 g of active compound/ha • 8. compound (I-1) as SL 200+azadirachtin, 50+5 g of active compound/ha • 9. positive control imidacloprid 100 g of active compound/ha
The plants were incubated under greenhouse conditions (20° C., 70% relative atmospheric humidity), the plants being placed at random. After 3 days, the first leaf samples were taken. Here, 5 leaves were picked from each plant. 10 leaf discs of a diameter of 6 cm were punched from the leaves and placed in Petri dishes covered with moistened filter paper. Once the leaf discs had been placed into the Petri dishes, 5 Plutella xylostella larvae of the L2 instar were added. The Petri dishes were placed on a tablett, covered with a dark film and kept at 20° C. in the laboratory. Evaluation was carried out on days 9, 14 and 21 after the addition of the larvae, the number of surviving animals being scored.
What is shown is the effect of the products, which becomes evident in a reduction of the number of diamondback moths compared to the untreated control.

[1] = system: Trialeurodes vaporariorum; test: Whiteflies on tomatoes (Example 5); type: in vivo
Method: Example 5 describes the effect of the combination according to the invention against whiteflies (Trialeurodes vaporariorum) on tomatoes (Lycopersicon esculentum). The test was carried out under GEP according to EPPO guideline PP 1/36(2) with 3 repetitions of in each case 4 plants. At the start of the infection, the plants were treated as follows: • 1. untreated • 2. compound (I-1) as SL 200 (compound according to formula (I-1), 17% strength), 50 g of active compound/ha • 3. azadirachtin 30 g of active compound/ha, NeemAzal® • 4. azadirachtin 15 g of active compound/ha, NeemAzal® • 5. azadirachtin 5 g of active compound/ha, NeemAzal® • 6. compound (I-1) as SL 200+azadirachtin, 50+30 g of active compound/ha • 7. compound (I-1) as SL 200+azadirachtin, 50+15 g of active compound/ha • 8. compound (I-1) as SL 200+azadirachtin, 50+5 g of active compound/ha • 9. positive control imidacloprid 100 g of active compound/ha
The spray solution was prepared by mixing commercial formulations and using water to adjust to the concentration mentioned. The application rate was 1000 l/ha. 2 applications were carried out at intervals of 14 days. The number of adult flies and the number of larvae were scored on days 2 to 21 after the first application. What is shown is the effect of the products, which becomes evident in a reduction of the number of insects or larvae compared to the untreated control. Imidacloprid was also tested, as positive control.

Cyclocephala immaculata = test: Watering test with beetle larvae (Example 2); type: in vivo; details: for Effect on day 1 in % / Effect on day 4 in % / Effect on day 7 in % / Effect on day 14 in %: L3 larvae, watering, (I-1) 600, azadirachtin 60, (I-1)+azadirachtin 600+60, trichlorfon 4529 g of active compound/ha
Source text: Beetle larvae (grubs) are important lawn pests. On the one hand, they feed on grass roots, damaging them directly, on the other hand they are a favoured food for birds which, searching for grubs, destroy the turf. For treatment against grubs, infested lawns are usually watered with insecticidal compositions. This type of treatment is emulated in the laboratory by Example 2.
To prepare a suitable active compound preparation, a commercial formulation of active compound or active compound combination is mixed with water until the desired concentration is reached. Pots with soil substrate were watered with the following active compound preparations: • 1. untreated • 2. compound (I-1) as SL 200, 600 g of active compound/ha • 3. azadirachtin, 60 g of active compound/ha • 4. compound (I-1) as SL 200+azadirachtin, 600+60 g of active compound/ha • 5. positive control: trichlorfon 4529 g of active compound/ha
L3 larvae of Cyclocephala immaculata were placed onto the pots. After 1, 4, 7, 14 days, the survival rate was determined, and this was used to calculate the efficacy of the compositions. 100% means that all grubs were killed, 0% means no activity.

Diabrotica balteata = Diabrotica balteata test, larvae in soil (Example 4); type: in vivo; details: soil treatment, maize, (I-1) 60 g of ai/ha, Azadirachta indica 20%, combination 60 g + 20%
Method: • Solvent: 4 parts by weight of acetone • Emulsifier: 1 part by weight of alkylaryl polyglycol ether
The active compound preparation was mixed with soil. […] The treated soil is filled into pots, and 5 maize corns are placed into each pot. 3 days after sowing, larvae of the corn rootworm (Diabrotica balteata) are placed into the treated soil.
The efficacy is calculated from the number of maize plants that have emerged.

Phaedon cochleariae = Phaedon cochleariae larvae test (Example 3); details: cabbage leaves sprayed, (I-1) 120 g of ai/ha, Azadirachta indica 20%, combination 120 g + 20%
[2] = Day 9, (I-1) 50, azadirachtin 30, (I-1)+azadirachtin 50+30, imidacloprid 100 g/ha
[3] = Day 14, (I-1) 50, azadirachtin 30, (I-1)+azadirachtin 50+30, imidacloprid 100 g/ha
[4] = Day 21, (I-1) 50, azadirachtin 30, (I-1)+azadirachtin 50+30, imidacloprid 100 g/ha
[5] = Day 2, (I-1) 50, azadirachtin 30, (I-1)+azadirachtin 50+30, imidacloprid 100 g/ha
[6] = Day 7, (I-1) 50, azadirachtin 30, (I-1)+azadirachtin 50+30, imidacloprid 100 g/ha
[7] = Day 14, azadirachtin 5, (I-1)+azadirachtin 50+5 g/ha
[8] = Day 14, azadirachtin 15, (I-1)+azadirachtin 50+15 g/ha
[9] = Day 21, azadirachtin 5, (I-1)+azadirachtin 50+5 g/ha
[10] = Day 21, azadirachtin 15, (I-1)+azadirachtin 50+15 g/ha
[11] = Day 2, azadirachtin 5, (I-1)+azadirachtin 50+5 g/ha
[12] = Day 2, azadirachtin 15, (I-1)+azadirachtin 50+15 g/ha
[13] = Day 7, azadirachtin 5, (I-1)+azadirachtin 50+5 g/ha
[14] = Day 7, azadirachtin 15, (I-1)+azadirachtin 50+15 g/ha

SMILES: O=[N+]([O-])NC1=NCCN1Cc1ccc(Cl)nc1 [imidacloprid]
- Activity against Plutella xylostella [%] (Plutella xylostella; [2]): 43%
- Activity against Plutella xylostella [%] (Plutella xylostella; [3]): 36%
- Activity against Plutella xylostella [%] (Plutella xylostella; [4]): 41%
- Activity against adults [%] [1, 5]: 51%
- Activity against larvae [%] [1, 5]: 0%
- Activity against adults [%] [1, 6]: 89%
- Activity against larvae [%] [1, 6]: 60%
- Activity against adults [%] [1, 3]: 68%
- Activity against larvae [%] [1, 3]: 50%
- Activity against adults [%] [1, 4]: 65%
- Activity against larvae [%] [1, 4]: 52%

SMILES: O=C1C=C(N(Cc2ccc(Cl)nc2)CC(F)F)CO1 [(I-1), 4-{[(6-chloropyrid-3-yl)methyl](2,2-difluoroethyl)amino}furan-2(5H)-one]
- Effect on day 1 in % (Cyclocephala immaculata): 0%
- Effect on day 4 in % (Cyclocephala immaculata): 28%
- Effect on day 7 in % (Cyclocephala immaculata): 0%
- Effect on day 14 in % (Cyclocephala immaculata): 29%
- Activity against Plutella xylostella [%] (Plutella xylostella; [2]): 0%
- Activity against Plutella xylostella [%] (Plutella xylostella; [3]): 21%
- Activity against Plutella xylostella [%] (Plutella xylostella; [4]): 34%
- Kill in % after 5d (found) (Diabrotica balteata): 75%
- Kill in % after 1d (found) (Phaedon cochleariae): 15%
- Activity against adults [%] [1, 5]: 73%
- Activity against larvae [%] [1, 5]: 0%
- Activity against adults [%] [1, 6]: 75%
- Activity against larvae [%] [1, 6]: 18%
- Activity against adults [%] [1, 3]: 22%
- Activity against larvae [%] [1, 3]: 0%
- Activity against adults [%] [1, 4]: 57%
- Activity against larvae [%] [1, 4]: 14%

SMILES: C/C=C(\C)C(=O)O[C@H]1C[C@@H](OC(C)=O)[C@@]2(C(=O)OC)CO[C@H]3[C@@H](O)[C@@](C)([C@]45O[C@@]4(C)[C@H]4C[C@@H]5O[C@@H]5OC=C[C@@]54O)[C@H]4[C@]1(CO[C@]4(O)C(=O)OC)[C@@H]32 [azadirachtin]
- Effect on day 1 in % (Cyclocephala immaculata): 0%
- Effect on day 4 in % (Cyclocephala immaculata): 0%
- Effect on day 7 in % (Cyclocephala immaculata): 0%
- Effect on day 14 in % (Cyclocephala immaculata): 7%
- effect on grubs (Cyclocephala immaculata; entire duration of the test, azadirachtin 60 g of active compound/ha): no effect
- Activity against Plutella xylostella [%] (Plutella xylostella; [2]): 46%
- Activity against Plutella xylostella [%] (Plutella xylostella; Day 9, azadirachtin 5, (I-1)+azadirachtin 50+5 g/ha): 0%
- Activity against Plutella xylostella [%] (Plutella xylostella; Day 9, azadirachtin 15, (I-1)+azadirachtin 50+15 g/ha): 18%
- Activity against Plutella xylostella [%] (Plutella xylostella; [3]): 72%
- Activity against Plutella xylostella [%] (Plutella xylostella; [7]): 15%
- Activity against Plutella xylostella [%] (Plutella xylostella; [8]): 31%
- Activity against Plutella xylostella [%] (Plutella xylostella; [4]): 25%
- Activity against Plutella xylostella [%] (Plutella xylostella; [9]): 25%
- Activity against Plutella xylostella [%] (Plutella xylostella; [10]): 38%
- Activity against adults [%] [1, 5]: 45%
- Activity against larvae [%] [1, 5]: 0%
- Activity against adults [%] [1, 11]: 23%
- Activity against larvae [%] [1, 11]: 0%
- Activity against adults [%] [1, 12]: 47%
- Activity against larvae [%] [1, 12]: 0%
- Activity against adults [%] [1, 6]: 47%
- Activity against larvae [%] [1, 6]: 2%
- Activity against adults [%] [1, 13]: 7%
- Activity against larvae [%] [1, 13]: 24%
- Activity against adults [%] [1, 14]: 54%
- Activity against larvae [%] [1, 14]: 13%
- Activity against adults [%] [1, 3]: 32%
- Activity against larvae [%] [1, 3]: 13%
- Activity against adults [%] [1, 7]: 0%
- Activity against larvae [%] [1, 7]: 12%
- Activity against adults [%] [1, 8]: 49%
- Activity against larvae [%] [1, 8]: 37%
- Activity against adults [%] [1, 4]: 56%
- Activity against larvae [%] [1, 4]: 0%
- Activity against adults [%] [1, 9]: 16%
- Activity against larvae [%] [1, 9]: 0%
- Activity against adults [%] [1, 10]: 80%
- Activity against larvae [%] [1, 10]: 0%
